{"source": "patent US10183019B2", "about": "“Treatment of cancer with dihydropyrazino-pyrazines” (Signal Pharmaceuticals, LLC, priority 2013, dated 2019)", "format_in_all_cases": "cell-based", "key": {"[1]": {"system": "patient-derived GBM cell line 217", "assay": "Combination effect of Compound 1 and TMZ on cell survival (fractional product)", "conditions": "168 h, Cmpd 1 100 nM alone, 7 days, read-out: % Actual inh.", "source_text": "(§1) TMZ is an alkylating agent that delivers a methyl group to the purine bases of DNA (O^6-guanine; N^7-guanine and N^3-adenine). The cytotoxic lesion, O^6-methylguanine (O^6-MeG), caused by TMZ can be directly removed by methylguanine methyltransferase (MGMT) via direct repair and can also activate mechanisms of mismatch repair (MMR). Futile cycles of MMR lead to the formation of double-stranded DNA breaks and activation of the DNA-PK mediated mechanisms of double-stranded break repair.\n(§2) Tumorspheres grown under tumorsphere culture conditions were harvested, dissociated into single cells, and plated at 5,000 cells/well in 96-well plates. […] When the value of the column % actual inhibition divided by % inhibition calculated based on summation is >1=synergism, ˜1=summation, <1=antagonism."}, "[2]": {"system": "patient-derived GBM cell line 206", "assay": "Combination effect of Compound 1 and TMZ on cell survival (fractional product)", "conditions": "168 h, 7 days, read-out: % Actual inh.", "source_text": "as §1, §2"}, "[3]": {"system": "patient-derived GBM cell line 217", "assay": "Gliomasphere Cell Number Assay", "conditions": "cell line 217, Primary; 50% cell numbers vs DMSO control, Day 2 to Day 9; read-out: IC50 Cell Survival", "protocol": "(§3) Gliomasphere Cell Number Assay. Primary patient-derived GBM tumor samples were dissociated and plated under culture conditions that produce gliomaspheres (i.e. DMEM/F12 medium supplemented with B27, 20 ng/mL bFGF, 50 ng/mL EGF, penicillin/streptomycin, L-glutamine and 5 ug/mL heparin). Cells were plated at a density of 5000 cells/well and allowed to acclimate overnight at 37° C. The Dihydropyrazino-Pyrazine Compounds were added to the cultures on Day 2 and cells were kept in culture until Day 9. On Day 9, the cells were fixed with PFA/methanol and the next day assessed for cell number, using for example, SYTO-9 fluorescent DNA dye. Plates were read 48 h later with a laser scanning imager."}, "[4]": {"system": "patient-derived GBM cell line 336", "assay": "Gliomasphere Cell Number Assay", "conditions": "cell line 336, Recurrent, MGMT status +; 50% cell numbers vs DMSO control, Day 2 to Day 9; read-out: IC50 Cell Survival", "protocol": "as §3"}, "[5]": {"system": "patient-derived GBM cell line 393", "assay": "Gliomasphere Cell Number Assay", "conditions": "cell line 393, Primary, MGMT status +; 50% cell numbers vs DMSO control, Day 2 to Day 9; read-out: IC50 Cell Survival", "protocol": "as §3"}, "[6]": {"system": "patient-derived GBM cell line 378", "assay": "Gliomasphere Cell Number Assay", "conditions": "cell line 378, Recurrent, MGMT status −; 50% cell numbers vs DMSO control, Day 2 to Day 9; read-out: IC50 Cell Survival", "protocol": "as §3"}, "[7]": {"system": "patient-derived GBM cell line 390", "assay": "Gliomasphere Cell Number Assay", "conditions": "cell line 390, Primary, MGMT status −; 50% cell numbers vs DMSO control, Day 2 to Day 9; read-out: IC50 Cell Survival", "protocol": "as §3"}, "[8]": {"system": "patient-derived GBM cell line 250", "assay": "Gliomasphere Cell Number Assay", "conditions": "cell line 250, Recurrent, MGMT Unkn/Highly Expressed; 50% cell numbers vs DMSO control, Day 2 to Day 9; read-out: IC50 Cell Survival", "protocol": "as §3"}, "[9]": {"system": "patient-derived GBM cell line 374", "assay": "Gliomasphere Cell Number Assay", "conditions": "cell line 374, Primary, MGMT status −; 50% cell numbers vs DMSO control, Day 2 to Day 9; read-out: IC50 Cell Survival", "protocol": "as §3"}, "[10]": {"system": "patient-derived GBM cell line 245", "assay": "Gliomasphere Cell Number Assay", "conditions": "cell line 245, Recurrent; 50% cell numbers vs DMSO control, Day 2 to Day 9; read-out: IC50 Cell Survival", "protocol": "as §3"}, "[11]": {"system": "patient-derived GBM cell line 308", "assay": "Gliomasphere Cell Number Assay", "conditions": "cell line 308, Recurrent, MGMT Unkn/Highly Expressed; 50% cell numbers vs DMSO control, Day 2 to Day 9; read-out: IC50 Cell Survival", "protocol": "as §3"}, "[12]": {"system": "patient-derived GBM cell line 277", "assay": "Gliomasphere Cell Number Assay", "conditions": "cell line 277, Secondary/Recurrent; 50% cell numbers vs DMSO control, Day 2 to Day 9; read-out: IC50 Cell Survival", "protocol": "as §3"}, "[13]": {"system": "patient-derived GBM cell line 157", "assay": "Gliomasphere Cell Number Assay", "conditions": "cell line 157, Primary, MGMT status −; 50% cell numbers vs DMSO control, Day 2 to Day 9; read-out: IC50 Cell Survival", "protocol": "as §3"}, "[14]": {"system": "patient-derived GBM cell line 206", "assay": "Gliomasphere Cell Number Assay", "conditions": "cell line 206, Recurrent, MGMT Unkn/Highly Expressed; 50% cell numbers vs DMSO control, Day 2 to Day 9; read-out: IC50 Cell Survival", "protocol": "as §3"}, "[15]": {"system": "patient-derived GBM cell line 296", "assay": "Gliomasphere Cell Number Assay", "conditions": "cell line 296, Recurrent, MGMT status −; 50% cell numbers vs DMSO control, Day 2 to Day 9; read-out: IC50 Cell Survival", "protocol": "as §3"}, "[16]": {"system": "patient-derived GBM cell line 347", "assay": "Gliomasphere Cell Number Assay", "conditions": "cell line 347, Recurrent, MGMT status −; 50% cell numbers vs DMSO control, Day 2 to Day 9; read-out: IC50 Cell Survival", "protocol": "as §3"}, "[17]": {"system": "patient-derived GBM cell line 248", "assay": "Gliomasphere Cell Number Assay", "conditions": "cell line 248, Recurrent, MGMT status Slightly elevated; 50% cell numbers vs DMSO control, Day 2 to Day 9; read-out: IC50 Cell Survival", "protocol": "as §3"}, "[18]": {"system": "patient-derived GBM cell line 207", "assay": "Gliomasphere Cell Number Assay", "conditions": "cell line 207, Recurrent; 50% cell numbers vs DMSO control, Day 2 to Day 9; read-out: IC50 Cell Survival", "protocol": "as §3"}, "[19]": {"system": "patient-derived GBM cell line 229", "assay": "Gliomasphere Cell Number Assay", "conditions": "cell line 229, Recurrent; 50% cell numbers vs DMSO control, Day 2 to Day 9; read-out: IC50 Cell Survival", "protocol": "as §3"}, "[20]": {"system": "patient-derived GBM cell line 371", "assay": "Gliomasphere Cell Number Assay", "conditions": "cell line 371, Recurrent, MGMT status −; 50% cell numbers vs DMSO control, Day 2 to Day 9; read-out: IC50 Cell Survival", "protocol": "as §3"}}, "data": [{"smiles": "CCN1C(=O)CNc2ncc(-c3ccc(-c4nc[nH]n4)nc3C)nc21", "note": "[Compound 1, 1-ethyl-7-(2-methyl-6-(1H-1,2,4-triazol-3-yl)pyridin-3-yl)-3,4-dihydropyrazino[2,3-b]pyrazin-2(1H)-one]", "values": [{"measurement": "inhibition at 0.1 µM", "setting": "[1]", "value": 51, "unit": "%"}, {"measurement": "inhibition at 0.05 µM", "setting": "[2]; Cmpd 1 50 nM alone", "value": 10.6, "unit": "%"}, {"measurement": "inhibition at 0.1 µM", "setting": "[2]; Cmpd 1 100 nM alone", "value": 23.1, "unit": "%"}, {"measurement": "inhibition at 0.5 µM", "setting": "[2]; Cmpd 1 500 nM alone", "value": 65.8, "unit": "%"}, {"measurement": "IC50", "setting": "[3]", "value": 71.9, "unit": "nM"}, {"measurement": "IC50", "setting": "[4]", "value": 231, "unit": "nM"}, {"measurement": "IC50", "setting": "[5]", "value": 178, "unit": "nM"}, {"measurement": "IC50", "setting": "[6]", "value": 81.3, "unit": "nM"}, {"measurement": "IC50", "setting": "[7]", "value": 65.9, "unit": "nM"}, {"measurement": "IC50", "setting": "[8]", "value": 70.6, "unit": "nM"}, {"measurement": "IC50", "setting": "[9]", "value": 165, "unit": "nM"}, {"measurement": "IC50", "setting": "[10]", "value": 68.7, "unit": "nM"}, {"measurement": "IC50", "setting": "[11]", "value": 68.2, "unit": "nM"}, {"measurement": "IC50", "setting": "[12]", "value": 107, "unit": "nM"}, {"measurement": "IC50", "setting": "[13]", "value": 46.8, "unit": "nM"}, {"measurement": "IC50", "setting": "[14]", "value": 163, "unit": "nM"}, {"measurement": "IC50", "setting": "[15]", "value": 74.5, "unit": "nM"}, {"measurement": "IC50", "setting": "[16]", "value": 163, "unit": "nM"}, {"measurement": "IC50", "setting": "[17]", "value": 441, "unit": "nM"}, {"measurement": "IC50", "setting": "[18]", "value": 100, "unit": "nM"}, {"measurement": "IC50", "setting": "[19]", "value": 115, "unit": "nM"}, {"measurement": "IC50", "setting": "[20]", "value": 368, "unit": "nM"}]}]}
